From ChEMBL document CHEMBL4651402, “Screening of ~5500 FDA-approved drugs and clinical candidates for anti-SARS-CoV-2 activity” (2021)
Where a name gives a salt, the structure may show the parent alone.

System: SARS-CoV-2
Assay: microbe, parasite or virus in culture
Settings: Severe acute respiratory syndrome coronavirus 2, Vero C1008, 48 h

| SMILES | IC50 [µM] | IC50 (read-out: pIC50 (converted)) [µM] |
| --- | --- | --- |
| COc1ccc(/C=C/C(=O)O)cc1OC | > 20 | > 20 |
| Cn1nc(CO)nc1NCCCOc1cccc(CN2CCCCC2)c1 [LAVOLTIDINE] | > 20 | > 20 |
| CC(=O)Oc1ccccc1C(=O)Oc1ccccc1C(=O)O [DIPLOSALSALATE] | > 20 | > 20 |
| NC(=O)NO [HYDROXYUREA] | > 20 | > 20 |
| CC1CC(OC(=O)C(O)c2ccccc2)CC(C)(C)N1C (stereo unspecified) [EUCATROPINE] | > 20 | > 20 |
| OC[C@H]1NC[C@H](O)[C@@H](O)[C@@H]1O [DUVOGLUSTAT] | > 20 | > 20 |
| CCCc1nc(C)c2c(=O)nc(-c3cc(S(=O)(=O)N4CCN(CC)CC4)ccc3OCC)[nH]n12 | > 20 | > 20 |
| Cc1nnc2n1-c1ccc(Cl)cc1C(c1ccccc1Cl)=NC2 [TRIAZOLAM] | > 20 | > 20 |
| O=c1[nH]c(=O)n([C@H]2C[C@H](O)[C@@H](CO)O2)cc1/C=C/Br [BRIVUDINE] | > 20 | > 20 |
| NC(=O)C1(N2CCCCC2)CCN(CCCN2c3ccccc3CCc3ccc(Cl)cc32)CC1 [CLOCAPRAMINE] | > 20 | > 20 |
| COc1cc(C)c2c(c1C=O)Oc1c(c(C)c(O)c3c1[C@H](O)OC3=O)OC2=O | > 20 | > 20 |
| CCCCCCCCCCCCOS(=O)(=O)O | > 20 | > 20 |
| CCC1(c2ccccc2)CCC(=O)NC1=O (stereo unspecified) [GLUTETHIMIDE] | > 20 | > 20 |
| CON(C)C(=O)N1N=C(c2cc(F)ccc2F)S[C@@]1(CCCN)c1ccccc1 [FILANESIB] | > 20 | > 20 |
| CCc1ccccc1-n1c(C)nc2ccccc2c1=O [ETAQUALONE] | > 25.1 | > 25.1 |
| O=C(O)Cc1ccccc1 [PHENYLACETIC ACID] | > 20 | > 20 |
| NC(=O)NC1NC(=O)NC1=O (stereo unspecified) [ALLANTOIN] | > 20 | > 20 |
| CC(=O)Nc1ccc(S(=O)(=O)c2ccc(NC(C)=O)cc2)cc1 [ACEDAPSONE] | > 20 | > 20 |
| CCCNS(=O)(=O)Nc1ncnc(OCCOc2ncc(Br)cn2)c1-c1ccc(Br)cc1 | > 20 | > 20 |
| COc1cc(OC)c2c(=O)[nH]c(-c3cc(C)c(OCCO)c(C)c3)nc2c1 [APABETALONE] | > 20 | > 20 |
| COc1ccc2nc3cc(Cl)ccc3c(Nc3cc(CN4CCCC4)c(O)c(CN4CCCC4)c3)c2n1 [PYRONARIDINE] | > 20 | > 20 |

| SMILES | IC50 [µM] | IC50 (read-out: pIC50 (converted)) [µM] |
| --- | --- | --- |
| CN(C)CCO[C@@H](c1ccc(Cl)cc1)c1ccccn1 [ROTOXAMINE] | > 20 | > 20 |
| CC(C)OC(=O)[C@H](C)N[P@@](=S)(OC[C@H]1O[C@@H](n2ccc(=O)[nH]c2=O)[C@](C)(O)[C@@H]1O)Oc1ccccc1 | > 20 | > 20 |
| CCOC(=O)c1ccc(O)cc1 [ETHYLPARABEN] | > 20 | > 20 |
| CCc1cc(C(N)=S)ccn1 [ETHIONAMIDE] | > 20 | > 20 |
| Cc1cc(N2CCN([C@@H]3CN[C@H](C(=O)N4CCSC4)C3)CC2)n(-c2ccccc2)n1 [TENELIGLIPTIN] | > 20 | > 20 |
| C[C@@H]1CCO[C@H]2Cn3cc(C(=O)NCc4ccc(F)cc4F)c(=O)c(O)c3C(=O)N12 [DOLUTEGRAVIR] | > 20 | > 20 |
| CNC(=O)c1ccc(C)c(-n2c(C)cc(OCc3ccc(F)cc3F)c(Br)c2=O)c1 [PH-797804] | > 20 | > 20 |
| COc1cnc(-n2cnc(C)n2)c2c1c(C(=O)C(=O)N1CCN(C(=O)c3ccccc3)CC1)cn2COP(=O)(O)O [FOSTEMSAVIR] | > 20 | > 20 |
| O=C(NCc1ccccc1)OCCO [BURAMATE] | > 20 | > 20 |
| N=C(N)N [GUANIDINE] | > 20 | > 20 |
| O=C(NCc1ccncc1)C12CC3CC(C1)CC(c1ccc(Cl)cc1)(C3)C2 [ABC-294640] | > 20 | > 20 |
| O=C(c1ccc2nonc2c1)N1CCOCC1 [CX-717] | > 20 | > 20 |
| CC(C)c1ncc([N+](=O)[O-])n1C [IPRONIDAZOLE] | > 20 | > 20 |
| CC(=O)OCC(=O)[C@@]1(OC(C)=O)[C@@H](C)C[C@H]2[C@@H]3C[C@H](F)C4=CC(=O)C=C[C@]4(C)[C@@]3(F)[C@@H](O)C[C@@]21C [DIFLORASONE DIACETATE] | > 20 | > 20 |
| COc1cc(CC(=O)NCCCc2ccc(C)c(C)c2)ccc1OCCN [DAVASAICIN] | > 20 | > 20 |
| CC(=O)Oc1cccc2c1C(=O)c1c(OC(C)=O)cc(C(=O)O)cc1C2=O [DIACEREIN] | > 20 | > 20 |
| CCCc1nc(C(C)(C)O)c(C(=O)O)n1Cc1ccc(-c2ccccc2-c2nnn[nH]2)cc1 [OLMESARTAN] | > 20 | > 20 |
| CCOC(=O)c1ccc(OCCC2CCN(c3ccc(C)nn3)CC2)cc1 | > 20 | > 20 |
| OC(CCN1CCCC1)(c1ccccc1)C1CCCCC1 (stereo unspecified) [PROCYCLIDINE] | > 20 | > 20 |
| NCCCCCC(=O)O [AMINOCAPROIC ACID] | > 20 | > 20 |
| O=C(O)c1ccccc1OP(=O)(O)O [FOSFOSAL] | > 20 | > 20 |

| SMILES | IC50 [µM] | IC50 (read-out: pIC50 (converted)) [µM] |
| --- | --- | --- |
| C[C@@H](c1ncncc1F)[C@](O)(Cn1cncn1)c1ccc(F)cc1F [VORICONAZOLE] | > 20 | > 20 |
| [2H]C([2H])(CCCCCCCC)C([2H])([2H])CCCCCC(=O)OC1CCCn2c1nc(C)c(CCN1CCC(c3noc4cc(F)ccc34)CC1)c2=O (stereo unspecified) | > 20 | > 20 |
| C=C1[C@@H]2CC[C@H]3[C@]4(C)C[C@H](O[C@H]5O[C@H](CO)[C@@H](OS(=O)(=O)O)[C@H](OS(=O)(=O)O)[C@H]5OC(=O)CC(C)C)C[C@@H](C(=O)O)[C@H]4CC[C@]3(C2)[C@H]1O | > 20 | > 20 |
| Oc1ccc(OCc2ccccc2)cc1 [MONOBENZONE] | > 20 | > 20 |
| CNCCc1ccc(OC(=O)C(C)C)c(OC(=O)C(C)C)c1 [IBOPAMINE] | > 20 | > 20 |
| CO[C@@]12[C@H](COC(N)=O)C3=C(C(=O)C(C)=C(N)C3=O)N1C[C@@H]1N[C@@H]12 [MITOMYCIN] | > 20 | > 20 |
| CC(=O)N[C@@H](CC(N)=O)C(=O)O | > 20 | > 20 |
| CCN(CC)CCOc1ccccc1-n1c(C)ccc1-c1ccccc1 [LEIOPYRROLE] | > 20 | > 20 |
| N#CCC1CCN(c2nc(Nc3ccc(N4CCC(O)CC4)cc3)c3c(=O)[nH]ncc3n2)CC1 [GUSACITINIB] | > 20 | > 20 |
| CCN(CCCc1ccccc1)CCCc1ccccc1 [ALVERINE] | > 20 | > 20 |
| CCCCC/C=C\C/C=C\C/C=C\C/C=C\CCCC(=O)NCCO [ANANDAMIDE] | > 20 | > 20 |
| CC(C)[C@H]1CC[C@H](C(=O)N[C@H](Cc2ccccc2)C(=O)O)CC1 [NATEGLINIDE] | > 20 | > 20 |
| COCC(O)Cn1ccnc1[N+](=O)[O-] (stereo unspecified) [MISONIDAZOLE] | > 20 | > 20 |
| Cc1cc(Nc2ncc(Cl)c(Nc3ccccc3S(=O)(=O)C(C)C)n2)c(OC(C)C)cc1C1CCNCC1 [CERITINIB] | > 20 | > 20 |
| Cc1ccc(-c2nc(CN3CCN(C(c4ccccc4)c4ccccc4)CC3)c(C)[nH]2)cc1 [LIFARIZINE] | > 20 | > 20 |
| COc1cc(C(=O)NCc2ccc(OCCN(C)C)cc2)cc(OC)c1OC [TRIMETHOBENZAMIDE] | > 20 | > 20 |
| COC(=O)/C=C/C(=O)OCCN1C(=O)CCC1=O [DIROXIMEL FUMARATE] | > 20 | > 20 |
| C[14C](C)(c1ccc(O)cc1)c1ccc(O)cc1 | > 20 | > 20 |
| CCCCc1ncc(C=C(Cc2cccs2)C(=O)O)n1Cc1ccc(C(=O)O)cc1 | > 20 | > 20 |
| CC[C@H](c1ccc(O)cc1)[C@@H](CC)c1ccc(O)cc1 [HEXESTROL] | > 20 | > 20 |
| COc1ccccc1[C@H](Cn1c(=O)n(C(C)(C)C(=O)O)c(=O)c2c(C)c(-c3ncco3)sc21)OC1CCOCC1 [FIRSOCOSTAT] | > 20 | > 20 |
